According to ChEMBL document CHEMBL1201862, “PubChem BioAssay data set” (2004):
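A five-concentration, 48-hour dose response in 96-well plates underlies each endpoint, interpolated linearly between surrounding concentrations. GI50 = concentration required for 50% inhibition of growth.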 The source made the active and inactive calls. No stated cut-off is given here; in the data, active = GI50 up to about 1.1 µM and inactive = higher.

Columns and labels:
Test in all cases: growth of human tumour cells (NCI), 48 h
[1] = system: A498
[2] = system: ACHN
[3] = system: CAKI-1
[4] = system: HCT-116
[5] = system: HCT-15
[6] = system: HOP-62
[7] = system: HT-29
[8] = system: K562
[9] = system: M14
[10] = system: MOLT-4
[11] = system: Malme-3M
[12] = system: NCI-H522
[13] = system: OVCAR-4
[14] = system: OVCAR-5
[15] = system: OVCAR-8
[16] = system: RXF 393
[17] = system: SK-MEL-5
[18] = system: SNB-75
[19] = system: SW-620
[20] = system: UO-31

| SMILES | GI50 [1] | GI50 [2] | GI50 [3] | GI50 [4] | GI50 [5] [µM] | GI50 [6] | GI50 [7] | GI50 [8] | GI50 [9] | GI50 [10] | GI50 [11] | GI50 [12] | GI50 [13] | GI50 [14] | GI50 [15] | GI50 [16] | GI50 [17] | GI50 [18] | GI50 [19] | GI50 [20] |
| --- | --- | --- | --- | --- | --- | --- | --- | --- | --- | --- | --- | --- | --- | --- | --- | --- | --- | --- | --- | --- |
| COC(=O)/C=C(/C)n1nc2ccccc2n1 | 77.3 µM (inactive) | > 100 µM (inactive) | > 100 µM (inactive) | > 100 µM (inactive) | > 100 | > 100 µM (inactive) | > 100 µM (inactive) | > 100 µM (inactive) | > 100 µM (inactive) | > 100 µM (inactive) | > 100 µM (inactive) | > 100 µM (inactive) | > 100 µM (inactive) | > 100 µM (inactive) | > 100 µM (inactive) | > 100 µM (inactive) | > 100 µM (inactive) | > 100 µM (inactive) | > 100 µM (inactive) | > 100 µM (inactive) |
| OCC1CCCC(n2cnc3c(S)ncnc32)O1 (stereo not given) | > 100 µM (inactive) | > 100 µM (inactive) | > 100 µM (inactive) | > 100 µM (inactive) | > 100 | > 100 µM (inactive) | > 100 µM (inactive) | > 100 µM (inactive) | > 100 µM (inactive) |  | > 100 µM (inactive) | > 100 µM (inactive) | > 100 µM (inactive) | > 100 µM (inactive) | > 100 µM (inactive) | > 100 µM (inactive) | > 100 µM (inactive) | > 100 µM (inactive) | > 100 µM (inactive) | > 100 µM (inactive) |
| COc1cc(CSc2ccc(O)cc2)cc(OC)c1OC | 93.3 µM (inactive) | 31.3 µM (inactive) | 34.6 µM (inactive) | 53 µM (inactive) | 25.5 | 49.7 µM (inactive) | 50.4 µM (inactive) | 38 µM (inactive) | 36.4 µM (inactive) | 25.5 µM (inactive) | 27.5 µM (inactive) | 29.3 µM (inactive) |  | 52.1 µM (inactive) | 33.8 µM (inactive) | > 100 µM (inactive) | 18 µM (inactive) | 23.1 µM (inactive) | > 100 µM (inactive) | 14.5 µM (inactive) |
| CCc1ccccc1NC(=O)C1=C(C)NC(C)=C(C(=O)Nc2ccccc2CC)C1c1cccc([N+](=O)[O-])c1 | 24.2 µM (inactive) | 29.5 µM (inactive) | 43.8 µM (inactive) |  |  | 38.3 µM (inactive) | 37.1 µM (inactive) | 29.4 µM (inactive) | 29 µM (inactive) | 7.45 µM (inactive) | 35.9 µM (inactive) | 22.2 µM (inactive) | 7.85 µM (inactive) | 41.5 µM (inactive) | 44.7 µM (inactive) | 10.5 µM (inactive) | 27.7 µM (inactive) | 32.1 µM (inactive) | 47.5 µM (inactive) | 11.5 µM (inactive) |
| CCOC(=O)C1CCC(=O)N1C(=O)c1ccc(Cl)cc1 (stereo not given) | > 100 µM (inactive) | > 100 µM (inactive) | > 100 µM (inactive) | > 100 µM (inactive) | > 100 | > 100 µM (inactive) | > 100 µM (inactive) | > 100 µM (inactive) | > 100 µM (inactive) | > 100 µM (inactive) | > 100 µM (inactive) | > 100 µM (inactive) |  | > 100 µM (inactive) | > 100 µM (inactive) | > 100 µM (inactive) | > 100 µM (inactive) | > 100 µM (inactive) | > 100 µM (inactive) | > 100 µM (inactive) |
| Cc1ccc(S(=O)(=O)NC(=O)C2=C3SCCN3C(=O)N(S(=O)(=O)c3ccc(C)cc3)C2c2ccccc2)cc1 (stereo not given) | > 100 µM (inactive) | > 100 µM (inactive) | > 100 µM (inactive) | 36.1 µM (inactive) | > 100 | 59.3 µM (inactive) | 34.4 µM (inactive) | 36.7 µM (inactive) | 61 µM (inactive) | 44.9 µM (inactive) | 40.6 µM (inactive) | 20.4 µM (inactive) | 58.6 µM (inactive) | 39.4 µM (inactive) | 77.1 µM (inactive) | 25.1 µM (inactive) |  | 43.4 µM (inactive) | 47.3 µM (inactive) | > 100 µM (inactive) |
| COc1ccc(-c2nnc(-c3ccncc3)o2)cc1 | > 100 µM (inactive) | > 100 µM (inactive) | > 100 µM (inactive) | > 100 µM (inactive) | > 100 | > 100 µM (inactive) | > 100 µM (inactive) | > 100 µM (inactive) | > 100 µM (inactive) | > 100 µM (inactive) | > 100 µM (inactive) | > 100 µM (inactive) | > 100 µM (inactive) | > 100 µM (inactive) | > 100 µM (inactive) | > 100 µM (inactive) | > 100 µM (inactive) | > 100 µM (inactive) |  | > 100 µM (inactive) |
| NC(=O)CC[C@H]1C(=O)N=C(N)N1C(=O)OCc1ccccc1 | > 100 µM (inactive) | > 100 µM (inactive) | > 100 µM (inactive) | > 100 µM (inactive) | > 100 | > 100 µM (inactive) | > 100 µM (inactive) | > 100 µM (inactive) |  | > 100 µM (inactive) | > 100 µM (inactive) | > 100 µM (inactive) | > 100 µM (inactive) | > 100 µM (inactive) | > 100 µM (inactive) | > 100 µM (inactive) | > 100 µM (inactive) | > 100 µM (inactive) | > 100 µM (inactive) | > 100 µM (inactive) |
| CC(=O)n1c(=O)c2cc3c(=O)n(-c4cccc(C#N)c4)c(=O)c3cc2c1=O | > 100 µM (inactive) | > 100 µM (inactive) | > 100 µM (inactive) | > 100 µM (inactive) | > 100 | 45.5 µM (inactive) | > 100 µM (inactive) | > 100 µM (inactive) | > 100 µM (inactive) |  | > 100 µM (inactive) | > 100 µM (inactive) | > 100 µM (inactive) | > 100 µM (inactive) | > 100 µM (inactive) | > 100 µM (inactive) | > 100 µM (inactive) | 23.7 µM (inactive) | > 100 µM (inactive) | > 100 µM (inactive) |
| Cc1c2c(c(C)n1-c1ccccc1)C(=O)N(CCN1CCN(c3cccc(C(F)(F)F)c3)CC1)C2=O | > 100 µM (inactive) | > 100 µM (inactive) | 84.7 µM (inactive) | 8.36 µM (inactive) | 17.7 | > 100 µM (inactive) | 10.6 µM (inactive) | 5.92 µM (inactive) | > 100 µM (inactive) | 6.03 µM (inactive) | > 100 µM (inactive) | 14.1 µM (inactive) | 7.35 µM (inactive) | > 100 µM (inactive) | 76.4 µM (inactive) | > 100 µM (inactive) | 5.25 µM (inactive) | > 100 µM (inactive) |  | 48.6 µM (inactive) |
| C=C1C(=O)OC2CC(C)C(/C=C/C(C)=O)=CCC12 (stereo not given) | > 100 µM (inactive) | > 100 µM (inactive) | > 100 µM (inactive) | 43.3 µM (inactive) | > 100 | > 100 µM (inactive) | > 100 µM (inactive) | 58.7 µM (inactive) | > 100 µM (inactive) | 83 µM (inactive) | 10.7 µM (inactive) | 29.8 µM (inactive) | > 100 µM (inactive) | > 100 µM (inactive) | > 100 µM (inactive) | > 100 µM (inactive) | 71.8 µM (inactive) | 2.99 µM (inactive) | 61.8 µM (inactive) |  |
| COc1ccc2[nH]c(Cl)c(/C=C3/C(=O)N(c4ccccc4)c4ccccc43)c2c1 | 8.17 µM (inactive) | 7.57 µM (inactive) | 10.6 µM (inactive) | 5.07 µM (inactive) | 2.58 | 6.81 µM (inactive) | 3.98 µM (inactive) | 3.18 µM (inactive) | 3.66 µM (inactive) | 3.82 µM (inactive) | 6.76 µM (inactive) | 3.25 µM (inactive) |  | 13.6 µM (inactive) | 6.44 µM (inactive) | 15.9 µM (inactive) | 2.28 µM (inactive) | 12.3 µM (inactive) | 3.78 µM (inactive) | 7.59 µM (inactive) |
| CS(=O)(=O)C(C#N)c1nc2ccccc2nc1Cl (stereo not given) | > 28.1 µM (inactive) | > 100 µM (inactive) | > 66.5 µM (inactive) | > 100 µM (inactive) | > 35.2 | > 100 µM (inactive) | > 100 µM (inactive) | > 100 µM (inactive) | > 100 µM (inactive) | > 100 µM (inactive) | > 100 µM (inactive) | > 53.7 µM (inactive) | > 73.5 µM (inactive) | > 39.9 µM (inactive) | > 19.5 µM (inactive) | > 100 µM (inactive) |  | > 100 µM (inactive) | > 100 µM (inactive) | > 100 µM (inactive) |
| COc1ccc(-c2cc(=O)c3c(O)cccc3o2)c(OC)c1OC | 33 µM (inactive) | 61 µM (inactive) | 97.3 µM (inactive) | 38.7 µM (inactive) | 10.1 | 10.3 µM (inactive) | > 100 µM (inactive) | 6.59 µM (inactive) | > 100 µM (inactive) | 12.9 µM (inactive) | > 100 µM (inactive) | > 100 µM (inactive) | 74.5 µM (inactive) | 6.67 µM (inactive) | > 100 µM (inactive) | 20.2 µM (inactive) | 24.7 µM (inactive) | 11.9 µM (inactive) | 22.4 µM (inactive) |  |
| CC(C)(/N=N/C(C)(C)C(=N)N)C(=N)N | > 100 µM (inactive) | > 100 µM (inactive) | > 100 µM (inactive) | > 100 µM (inactive) | > 100 | > 100 µM (inactive) | > 100 µM (inactive) | > 100 µM (inactive) | > 100 µM (inactive) | > 100 µM (inactive) |  | > 100 µM (inactive) | > 100 µM (inactive) | > 100 µM (inactive) | > 100 µM (inactive) | > 100 µM (inactive) | > 100 µM (inactive) | > 100 µM (inactive) | > 100 µM (inactive) | > 100 µM (inactive) |
